ChEMBL document CHEMBL5727968, “3-phenyl-pyrazole derivatives as modulators of the 5-HT2A serotonin receptor useful for the treatment of disorders related thereto” (2020)

Molecular target: 5-hydroxytryptamine receptor 2A (Homo sapiens, UniProt P28223)
Test: [125I]DOI Radioligand Binding Assay: Radioligand binding assays for human 5-HT2A receptor was conducted using the 5-HT2 agonist [125I]DOI as radioligand. To define nonspecific binding, 10 μM DOI was used for all assays. For competitive binding studies, 0.5 nM [125I]DOI was used and compounds were assayed over a range of 0.01 nM to 10 μM. Assays were conducted in a total volume of 200 μl in 96-well Perkin Elmer GF/C filter plates in assay buffer (50 mM Tris-HCl, pH 7.4, 0.5 mM EDTA, 5 mM MgCl2, and 10 μM pargyline). Assay incubations were performed for 60 min at room temperature and were terminated by rapid filtration under vacuum pressure of the reaction mixture over Whatman GF/C glass fiber filters presoaked in 0.5% PEI using a Brandell cell harvestor. Filters were then washing several times with ice-cold wash buffer (50 mM Tris-HCl, pH 7.4). Plates were then dried at room temperature and counted in a Wallac microBeta scintillation counter.

5-hydroxytryptamine receptor 2A, sequence (P28223 whole entry): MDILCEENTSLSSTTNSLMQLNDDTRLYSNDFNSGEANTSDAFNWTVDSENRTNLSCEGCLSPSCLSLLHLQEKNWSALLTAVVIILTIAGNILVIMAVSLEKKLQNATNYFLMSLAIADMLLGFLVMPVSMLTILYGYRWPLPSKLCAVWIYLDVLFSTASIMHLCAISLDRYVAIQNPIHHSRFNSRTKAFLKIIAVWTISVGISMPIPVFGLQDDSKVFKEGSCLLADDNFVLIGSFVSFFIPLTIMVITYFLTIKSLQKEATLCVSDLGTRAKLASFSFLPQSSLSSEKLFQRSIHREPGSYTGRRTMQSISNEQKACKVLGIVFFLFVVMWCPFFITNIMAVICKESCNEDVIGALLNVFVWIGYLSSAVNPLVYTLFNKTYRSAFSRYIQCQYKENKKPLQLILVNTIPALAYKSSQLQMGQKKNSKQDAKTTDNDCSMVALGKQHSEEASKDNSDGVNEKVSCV

| SMILES | IC50 [µM] |
| --- | --- |
| Cn1nccc1-c1cc(NC(=O)NCc2ccc(Cl)cc2)ccc1OCCN1CCCC1 | 0.0102 |
| Cn1nccc1-c1cc(NC(=O)Cc2ccc(F)cc2)ccc1OCCN1CCCCC1 | 0.0137 |
| CCC(C)OC(=O)Nc1ccc(OCCN2CCCC2)c(-c2c(Br)cnn2C)c1 (stereo not drawn) | 0.0011 |
